Holding throughout (test): NCI anticancer screen, dose series, 48 h
The test system of assay [1] is 786-0 renal.
The test system of assay [2] is ACHN renal.
For assay [3], the system named is EKVX NSCLC.
The subject of assay [4] is HCT-116 colon.
The subject of assay [5] is HOP-62 NSCLC.
The test system of assay [6] is HS 578T breast.
In assay [7] the test system is HT29 colon.
The test system of assay [8] is LOX IMVI melanoma.
The subject of assay [9] is MCF7 breast.
The test system of assay [10] is NCI-H23 lung.
For assay [11], the system named is OVCAR-8 ovarian.
Assay [12] deals with RXF 393 renal.
For assay [13], the system named is SK-MEL-2 melanoma.
Assay [14] concerns SK-MEL-28 melanoma.
The subject of assay [15] is SK-MEL-5 melanoma.
For assay [16], the system named is SN12C renal.
Assay [17] deals with SNB-19 CNS.
For assay [18], the system named is SW-620 colon.
For assay [19], the system named is UO-31 renal.

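Following 48 hours of exposure in 96-well plates, responses at five concentrations were used to interpolate endpoints linearly. The concentration for full growth arrest is given as TGI.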

`Cc1ccc(NC(=O)CSc2nc(C)nc3c2sc(=S)n3-c2ccccc2)cc1`: the TGI in [1] was 6.92 µM; in assay [2] it was over 10 µM; in [3] it was over 10 µM; in [4], over 10 µM; in assay [5] it was 5.08 µM; in [6], 6.3 µM. The TGI in assay [7] was over 10 µM; in assay [8] it was over 10 µM; in assay [9], over 10 µM; in assay [10], over 10 µM; in assay [11] it was over 10 µM; in [12], 9.17 µM. Also, the TGI in assay [13], in assay [14], in [15], in [16], in [17] and in [18] was over 10 µM in each case.

As to `Oc1ccccc1/C=N/Nc1nc(N/N=C/c2ccccc2O)nc(N/N=C/c2ccccc2O)n1`, the TGI in assay [1], in [2], in assay [3], in assay [4], in [5] and in [6] was over 100 µM each time. Further, the TGI in assay [7], in [8], in assay [9], in [10], in [11] and in [12] was over 100 µM throughout. Further, the TGI in assay [13], in assay [14], in assay [15], in assay [16], in assay [17] and in [18] was over 100 µM each time. In addition, the TGI in [19] is over 100 µM.

Consider `N#Cc1c(O)c(N=Nc2ccccc2F)c(=O)n2c1[nH]c1ccccc12`, for which the TGI in [1] is over 100 µM; in [2], over 100 µM; in [3], over 100 µM; in assay [4] it was over 100 µM; in assay [5] it was over 100 µM; in assay [6], 65.4 µM. In addition, the TGI in [7], in [8], in [9], in [10], in assay [11] and in assay [12] was over 100 µM each time. The TGI in [13] is 57 µM; in assay [14], over 100 µM; in assay [15], over 100 µM; in assay [16] it was over 100 µM; in assay [17], over 100 µM; in assay [18], over 100 µM. This compound came in with a TGI in assay [19] of over 100 µM.

`CC(C)(C)C(=O)C(C(=O)C(C)(C)C)C(=O)C(C)(C)C`: the TGI in assay [1], in assay [2], in assay [3], in assay [4], in [5] and in assay [6] was over 100 µM in each case. Moreover, the TGI in [7], in assay [8], in [9], in assay [10], in [11] and in assay [12] was over 100 µM in each case. Moreover, the TGI in assay [13], in assay [14], in assay [15], in [16], in [17] and in assay [18] was over 100 µM in each case. Besides, the TGI in [19] is over 100 µM.

As for `C=CC(c1ccccc1)[C@@]1(OC(C)=O)C(=O)C(=O)OC1C1COC(C)(C)O1` (stereo partly specified), the TGI in assay [1] turned out to be 33.4 µM; in assay [2] it was 18.6 µM; in assay [3], 35.3 µM; in [4], 24.7 µM; in [5], 34.2 µM; in assay [6], 68.3 µM. For the same compound, the TGI in [7] turned out to be 46.2 µM; in [8], 16.2 µM; in assay [9] it was 22.8 µM; in assay [10], 42.9 µM; in assay [11], 27.9 µM; in assay [12], 14.6 µM. Also, the TGI in assay [13] was 33.4 µM; in assay [14], 24.6 µM; in assay [15] it was 29.7 µM; in assay [16], 21.7 µM; in assay [17], 42.7 µM; in assay [18], 35.8 µM. In addition, the TGI in assay [19] worked out at 23.7 µM.

Turning to `COc1c(C)c2c(c(=O)c3c(C)cccc3n2C)c2c1c(=O)c1c(C)cccc1n2C`, the TGI in assay [1], in assay [2], in assay [3], in assay [4], in assay [5] and in assay [6] was over 10 µM in each case. The TGI in assay [7], in assay [8], in assay [9], in assay [10], in assay [11] and in assay [12] was over 10 µM throughout. Besides, the TGI in assay [13], in assay [14], in [15], in assay [16], in [17] and in assay [19] was over 10 µM each time.

For the compound `CN(C)c1ccc(/C=c2/c3ccccc3n3nc4ccccc4c23)cc1`, the TGI in [1], in [2], in assay [3], in [4], in [5] and in assay [6] was over 100 µM throughout. The TGI is over 100 µM in [7]; over 100 µM in [8]; over 100 µM in assay [9]; over 100 µM in assay [10]; over 100 µM in assay [11]; 66.8 µM in [12]. Also, the TGI in assay [13] is over 100 µM; in [14] it was over 100 µM; in assay [15], 73.5 µM; in [16], over 100 µM; in assay [17], over 100 µM; in [18] it was over 100 µM. Further, in assay [19], the TGI was over 100 µM.

For the origin of these results see PubChem BioAssay (NCI).
